Converted amounts (≈) assume the structure as drawn.
How the values were obtained:
[1] = test system: Mtb IZAK (multidrug-resistant clinical isolate); assay: microbe, parasite or virus in culture; format: cell-based, Mycobacterium tuberculosis; details: for MIC: Mycobacterium tuberculosis, read-out: Mtb IZAK MIC; for Mtb IZAK susceptibility class (R/S): MDR clinical isolate
[2] = test system: Mtb MATI (multidrug-resistant clinical isolate); assay: microbe, parasite or virus in culture; format: cell-based, Mycobacterium tuberculosis; details: for MIC: Mycobacterium tuberculosis, read-out: Mtb MATI MIC; for Mtb MATI susceptibility class (R/S): MDR clinical isolate
Mtb laboratory ID MATI = details: MDR clinical isolate; external resistance profiling; cited from earlier work
Mtb laboratory ID IZAK = details: MDR clinical isolate; external resistance profiling; cited from earlier work

Work on Cc1ccc(C(=O)Nc2nccnc2C(N)=O)cc1 [Compound 4] yielded an MIC [1] of 12.5 µg/mL (≈ 48.8 µM) and an MIC [2] of 12.5 µg/mL (≈ 48.8 µM).
In the case of NC(=O)c1nccnc1NC(=O)c1ccc(Cl)cc1 [Compound 15], the MIC [1] is reported as 12.5 µg/mL (≈ 45.2 µM) and the MIC [2] is reported as 12.5 µg/mL (≈ 45.2 µM).
NC(=O)c1nccnc1NC(=O)c1ccc(Br)cc1 [Compound 18] showed an MIC [1] of 12.5 µg/mL (≈ 38.9 µM) and an MIC [2] of 12.5 µg/mL (≈ 38.9 µM).
With NNC(=O)c1ccncc1 [INH, isoniazid] the “Mtb IZAK susceptibility class (R/S)” value [1] was “R”, the MIC [1] was 4 µg/mL (≈ 29.2 µM) and the “Mtb MATI susceptibility class (R/S)” value [2] was “R”. It also gave an MIC [2] greater than 8 µg/mL.
For [H]/N=C(/N)N[C@H]1[C@H](O)[C@@H](O)[C@H](O[C@@H]2O[C@@H](C)[C@](O)(C=O)[C@H]2O[C@@H]2O[C@@H](CO)[C@H](O)[C@@H](O)[C@@H]2NC)[C@@H](N/C(N)=N\[H])[C@@H]1O [STM, streptomycin], the “Mtb IZAK susceptibility class (R/S)” value [1] is listed as “R”, the “Mtb MATI susceptibility class (R/S)” value [2] is listed as “R” and the “Mtb MATI MIC, value from external resistance profiling (*)” value (“Mtb MATI MIC, value” for short) (Mtb laboratory ID MATI) is listed as greater than 16 µg/mL. For the same compound, the “Mtb IZAK MIC, value from external resistance profiling (*)” value (from here on “Mtb IZAK MIC, value”) (Mtb laboratory ID IZAK) was 4 µg/mL.
For NC(=O)c1cnccn1 [PZA, pyrazinamide], the “Mtb IZAK susceptibility class (R/S)” value [1] is given as “R”, the “Mtb MATI susceptibility class (R/S)” value [2] is given as “R” and the “Mtb MATI MIC, value” value (Mtb laboratory ID MATI) is given as greater than 128 µg/mL. For the same compound, the “Mtb IZAK MIC, value” value (Mtb laboratory ID IZAK) was greater than 16 µg/mL.
For CO[C@H]1/C=C/O[C@@]2(C)Oc3c(C)c(O)c4c(O)c(c(/C=N/N5CCN(C)CC5)c(O)c4c3C2=O)NC(=O)/C(C)=C\C=C\[C@H](C)[C@H](O)[C@@H](C)[C@@H](O)[C@@H](C)[C@H](OC(C)=O)[C@@H]1C [RIF, rifampicin], the “Mtb IZAK susceptibility class (R/S)” value [1] is listed as “R”, the “Mtb MATI susceptibility class (R/S)” value [2] is listed as “R” and the “Mtb MATI MIC, value” value (Mtb laboratory ID MATI) is listed as greater than 8 µg/mL. For the same compound, the “Mtb IZAK MIC, value” value (Mtb laboratory ID IZAK) was greater than 8 µg/mL.
With NC(=O)c1nccnc1NC(=O)c1ccc(F)cc1 [Compound 12] the MIC [1] was 100 µg/mL (≈ 384 µM) and the MIC [2] was 100 µg/mL (≈ 384 µM).
With CC[C@@H](CO)NCCN[C@@H](CC)CO [EMB, ethambutol] the “Mtb IZAK susceptibility class (R/S)” value [1] was “S”, the MIC [1] was 0.39 µg/mL (≈ 1.91 µM) and the “Mtb MATI susceptibility class (R/S)” value [2] was “S”. For the same compound, the MIC [2] was 0.39 µg/mL (≈ 1.91 µM), the “Mtb MATI MIC, value” value (Mtb laboratory ID MATI) was 0.5 µg/mL and the “Mtb IZAK MIC, value” value (Mtb laboratory ID IZAK) was 0.5 µg/mL.

Reference: publication PMC9687610, “Adenosine-Mimicking Derivatives of 3-Aminopyrazine-2-Carboxamide: Towards Inhibitors of Prolyl-tRNA Synthetase with Antimycobacterial Activity” (Biomolecules, 2022)
